Holding throughout (assay type): cell-based
Experiment [1] relates to human esophageal cancer cells TE12. Nature of the experiment: Tumor cell growth inhibitory activity (CCK-8), TE12. As to conditions: 72 h incubation, read-out: IC50 for inhibiting the growth of tumor cells, TE12. How it is done:
(§1) Human esophageal cancer cells OE33, human breast cancer cells MDA-MB-231, human gastric cancer cells NCI-N87, human lung cancer cells NCI-H1975, human esophageal cancer cells TE12, human breast cancer cells SK-BR-3, etc., were cultured in RPMI1640 (Cellmax) supplemented with 10% fetal bovine serum (Cellmax). Tumor cells in the exponential growth phase were diluted to a concentration of 1×10^5 cells/mL with culture medium and added to 96-well cell culture plates at 100 μL per well, then returned and incubated overnight in a 37° C. incubator with 5% CO2. On the following day, the compounds were diluted to concentrations of 10000 nM, 2000 nM, 400 nM, 80 nM, 16 nM, 3.2 nM, 0.64 nM, and 0.13 nM with culture medium, and the diluted compounds were added to the 96-well cell culture plates at 2 μL per well, with three replicate wells for each concentration. Negative control and blank control groups without addition of compounds were added with 2 μL of the dilution liquid per well. After the addition of the compounds, the plates were returned to the 37° C. incubator with 5% CO2 to continue the incubation for 72 h. After the incubation, the cell culture plates were removed, and the culture medium in the plates was aspirated using a pipette. Then, 100 μL of culture medium containing 10% CCK-8 was added to each well, and the plates were incubated at 37° C. for 3 h. After the incubation, the plates were removed, kept in the dark, and placed in an ELISA plate. Absorbance was measured at 630 nm as the reference wavelength and 450 nm as the test wavelength. Based on the absorbance values, the IC50 values (Table 1) were calculated using the four-parameter logistic regression method in GraphPad.

For experiment [2], the system named is human breast cancer cells MDA-MB-231. Description: Tumor cell growth inhibitory activity (CCK-8), MDA-MB-231. Particulars: MDA-MB-231 cells, 72 h incubation, read-out: IC50 for inhibiting the growth of tumor cells, MDA-MB-231. How it is done: as §1
Experiment [3] deals with Human esophageal cancer cells OE33. Nature of the experiment: Tumor cell growth inhibitory activity (CCK-8), OE33. Particulars: 72 h incubation, read-out: IC50 for inhibiting the growth of tumor cells, OE33. The protocol: as §1
The subject of experiment [4] is human breast cancer cells SK-BR-3. Description: Tumor cell growth inhibitory activity (CCK-8), SK-BR-3. As to conditions: SK-BR-3 cells, 72 h incubation, read-out: IC50 for inhibiting the growth of tumor cells, SK-BR-3. The protocol: as §1
Experiment [5] relates to human gastric cancer cells NCI-N87. Nature of the experiment: Tumor cell growth inhibitory activity (CCK-8), NCI-N87. As to conditions: 72 h incubation, read-out: IC50 for inhibiting the growth of tumor cells, NCI-N87. How it is done: as §1
Experiment [6] relates to human lung cancer cells NCI-H1975. Description: Tumor cell growth inhibitory activity (CCK-8), NCI-H1975. As to conditions: 72 h incubation, read-out: IC50 for inhibiting the growth of tumor cells, NCI-H1975. The protocol:
as §1

pIC50: −log10 of the molar value. Read-outs that look alike come from different tables or passages of the source.

A word on the pIC50: it is the negative decadic logarithm of the IC50, by convention in mol/L.

In the case of `CC[C@@]1(O)C(=O)OCc2c1cc1n(c2=O)Cc2c-1nc1cc(F)c(C)c3c1c2[C@@H](NC(=O)CNCC(F)(F)F)CC3` [Compound 2, N—(N-(2′-trifluoroethyl)aminoacetyl)exatecan], the pIC50 in experiment [1] was 7.90; in experiment [2], 6.62; in experiment [3], 8.96; in experiment [4], 9.00; in experiment [5], 9.35; in experiment [6], 7.33.

Turning to `CC[C@@]1(O)C(=O)OCc2c1cc1n(c2=O)Cc2c-1nc1cc(F)c(C)c3c1c2[C@@H](NC(=O)[C@@H]1CC(F)(F)CN1)CC3` [Compound 4, 4′,4′-difluoroprolyl exatecan], the pIC50 in experiment [1] (Homo sapiens) is 7.95; in experiment [2] (Homo sapiens), 6.70; in experiment [3] (Homo sapiens), 9.12; in experiment [4] (Homo sapiens), 9.46; in experiment [5] (Homo sapiens) it was 10.00; in experiment [6] (Homo sapiens), 7.39.

With `CC[C@@]1(O)C(=O)OCc2c1cc1n(c2=O)Cc2c-1nc1cc(F)c(C)c3c1c2[C@H](NC(=O)C(C)(F)F)CC3` [Compound 6, 2′,2′-difluoropropionyl exatecan], the pIC50 is 8.12 in experiment [1] (Homo sapiens); 6.84 in experiment [2] (Homo sapiens); 9.21 in experiment [3] (Homo sapiens); 9.49 in experiment [4] (Homo sapiens); 9.78 in experiment [5] (Homo sapiens); 7.41 in experiment [6] (Homo sapiens).

In the case of `CC[C@@]1(O)C(=O)OCc2c1cc1n(c2=O)Cc2c-1nc1cc(F)c(C)c3c1c2[C@@H](NC(=O)CO)CC3` [Dxd, reference compound], the pIC50 in experiment [1] (Homo sapiens) was 7.67; in experiment [2] (Homo sapiens), 6.68; in experiment [3] (Homo sapiens) it was 8.18; in experiment [4] (Homo sapiens) it was 8.35; in experiment [5] (Homo sapiens), 8.87; in experiment [6] (Homo sapiens) it was 7.13.

In the case of `CC[C@@]1(O)C(=O)OCc2c1cc1n(c2=O)Cc2c-1nc1cc(F)c(C)c3c1c2[C@@H](NC(=O)C(F)F)CC3` [Compound 5, 2′,2′-difluoroacetyl exatecan], the pIC50 in experiment [1] (Homo sapiens) is 7.73; in experiment [2] (Homo sapiens) it was 6.39; in experiment [3] (Homo sapiens), 8.36; in experiment [4] (Homo sapiens), 8.69; in experiment [5] (Homo sapiens), 9.06; in experiment [6] (Homo sapiens), 7.86.

Regarding `CC[C@@]1(O)C(=O)OCc2c1cc1n(c2=O)Cc2c-1nc1cc(F)c(C)c3c1c2[C@@H](NC(=O)C(F)C(N)=O)CC3` (stereo partly drawn) [Compound 1, N-(2′-fluoro-3′-amino-3′-oxo-propanoyl) exatecan], the pIC50 in experiment [1] was 6.47; in experiment [2], < 6.00; in experiment [3], 7.42; in experiment [4], 7.75; in experiment [5], 7.92; in experiment [6], 6.22.

On to `CC[C@@]1(O)C(=O)OCc2c1cc1n(c2=O)Cc2c-1nc1cc(F)c(C)c3c1c2[C@@H](NC(=O)C(N)C(F)(F)F)CC3` (stereo partly drawn) [Compound 3, 2′-amino-3′,3′,3′-trifluoropropanoyl exatecan], for which the pIC50 was 7.68 in experiment [1] (Homo sapiens); 6.58 in experiment [2] (Homo sapiens); 8.25 in experiment [3] (Homo sapiens); 8.52 in experiment [4] (Homo sapiens); 8.76 in experiment [5] (Homo sapiens); 7.25 in experiment [6] (Homo sapiens).

The values are drawn from patent publication US20260217729A1, “HALOGEN-S[…] AMIDE DERIVATIVE, PREPARATION METHOD THEREFOR, AND USE THEREOF” (HANGZHOU ADCORIS BIOPHARMA CO., LTD, priority 2023, published 2026).
